Earlier results as cited in patent US20260158012A1 (Beijing Creatron Institute Of Pharmaceutical Research Co. …, priority 2022, published 2026).
Like-named read-outs stand apart in the source and are kept apart here.

What was measured:
[1] = for Solubility (in words): aqueous media
[2] = 7 consecutive days
[3] = not given; remark: listed apart in the source
[4] = dosage increased from 400 mg each time to 600 mg each time
[5] = test system: advanced hepatocellular carcinoma
[6] = trough concentration <1.40 μg/mL
[7] = trough concentration ≥3.45 μg/mL

CNC(=O)c1cc(Oc2ccc(NC(=O)Nc3ccc(Cl)c(C(F)(F)F)c3)cc2)ccn1 [Sorafenib, 4-[4-[[4-chloro-3-(trifluoromethyl)phenyl]carbamoylamino]phenoxy]-N-methylpyridine-2-carboxamide]
Solubility [1]: <10 µg/mL | oil-water partition coefficient Log P [1]: about 5.6 | Solubility (in words) [1]: Practically insoluble in aqueous | concentration of sorafenib molecules in the solution (pH 1.0): 3400 ng/mL | concentration of sorafenib molecules in the solution (pH 4.5): 130 ng/mL | coefficient of variation of AUC0-12 h at steady state ([2]; 200 mg (Bid) oral): 16.9% | coefficient of variation of Cmax at steady state ([2]; 200 mg (Bid) oral): 8.6% | coefficient of variation of AUC0-12 h at steady state ([2]; 400 mg (Bid) oral): 90.5% | coefficient of variation of Cmax at steady state ([2]; 400 mg (Bid) oral): 106.7% | steady state concentration in the blood (plasma) ([3]; after 2 weeks of treatment, renal cell carcinoma patients): 881-12,526 ng/mL | blood drug concentration of patients who experienced serious adverse reactions ([3]; human, in vivo): exceeded 10,000 ng/ml | incidence of fatigue ([3]; renal cell carcinoma patients): 55.32% | incidence of hand-foot syndrome ([3]; renal cell carcinoma patients): 68.99% | increase in drug exposure [4]: 13% | overall survival (OS) ([5]; 1.40 μg/mL≤Ctrough<3.45 μg/mL): 17.8 months | time to treatment failure (TTF) ([5]; 1.40 μg/mL≤Ctrough<3.45 μg/mL): 13.1 months | overall survival (OS) [5, 6]: 5.3 months | progression-free survival (PFS) [5, 6]: 4.7 months | time to treatment failure (TTF) [5, 6]: 4.7 months | incidence of serious adverse reactions above grade 3 ([5]; trough concentration below 3.45 μg/ml): 26.7% | incidence of serious adverse reactions above grade 3 ([5]; trough concentration exceeded 3.45 μg/ml): 72.7% | overall survival (OS) [5, 7]: 9.5 months | progression-free survival (PFS) [5, 7]: 8.9 months | time to treatment failure (TTF) [5, 7]: 2.4 months

[2H]C([2H])([2H])NC(=O)c1cc(Oc2ccc(NC(=O)Nc3ccc(Cl)c(C(F)(F)F)c3)cc2)ccn1 [Donafenib, 4-[4-[[4-chloro-3-(trifluoromethyl)phenyl]carbamoylamino]phenoxy]-N-(trideuteriomethyl)pyridine-2-carboxamide]
Solubility [1]: <10 µg/mL | Solubility (in words) [1]: Practically insoluble in aqueous
